According to patent US11203577B2, “Sulfonyl-structure-containing triazinone derivatives, their preparation methods and their uses in insect killing and/or bacterium killing” (Nankai University, priority 2017, dated 2021):
Like-named read-outs stand apart in the source and are kept apart here.

Assays:
Cucumber fusarium wilt = assay: In vitro fungicidal activity, PDA colony diameter; assay type: cell-based; conditions: 96 h, 50 mg/kg, inhibition of colony diameter, read-out: Fungicidal activity (%) Cucumber fusarium wilt
[1] = system: Cercospora brown spot of peanut; assay: In vitro fungicidal activity, PDA colony diameter; assay type: cell-based; conditions: 96 h, 50 mg/kg, inhibition of colony diameter, read-out: Fungicidal activity (%) Cercospora brown spot of peanut
Tomato early blight = assay: In vitro fungicidal activity, PDA colony diameter; assay type: cell-based, Alternaria solani; conditions: 50 mg/kg, inhibition of colony diameter; read-out: Fungicidal activity (%) Tomato early blight
Wheat head blight = assay: whole plant or invertebrate; assay type: cell-based; conditions: Triticum aestivum, read-out: Fungicidal activity (%) Wheat head blight
Rice bakanae disease = assay: In vitro fungicidal activity, PDA colony diameter; assay type: cell-based; conditions: read-out: Fungicidal activity (%) Rice bakanae disease
Sclerotinia rot of colza = assay: In vitro fungicidal activity, PDA colony diameter; assay type: cell-based; conditions: 96 h, 50 mg/kg, inhibition of colony diameter, read-out: Fungicidal activity (%) Sclerotinia rot of colza
Apple ring rot = assay: In vitro fungicidal activity, PDA colony diameter; assay type: cell-based; conditions: inhibition of colony diameter
Description: (§1) Here, the test is described in an example of Alternaria solani; it can be replaced by other fungi.
(§2) In vitro testing method: Alternaria solani is inoculated to a PDA culture medium and cultured for 7 days, a fungus dish with a diameter of […] is prepared on the periphery of the colony with a punch and inoculated to a PDA culture medium that contains pesticide at a concentration of 50 mg/kg and a PDA culture medium that doesn't contain the pesticide, and are cultured for 4 days respectively; then, the colony diameters are measured, and the inhibition percentages of the pesticides are calculated by comparing with the control sample.

[2] = system: Capsicum phytophthora blight; assay: In vitro fungicidal activity, PDA colony diameter; assay type: cell-based; conditions: 96 h
Description: as §1, §2

Wheat sheath blight = assay: In vitro fungicidal activity, PDA colony diameter; assay type: cell-based; conditions: 50 mg/kg, inhibition of colony diameter; read-out: Fungicidal activity (%) Wheat sheath blight
[3] = system: Corn southern leaf blight; assay: In vitro fungicidal activity, PDA colony diameter; assay type: cell-based; conditions: 50 mg/kg, inhibition of colony diameter; read-out: Fungicidal activity (%) Corn southern leaf blight
Watermelon anthracnose = assay: In vitro fungicidal activity, PDA colony diameter; assay type: cell-based; conditions: 50 mg/kg, inhibition of colony diameter; read-out: Fungicidal activity (%) Watermelon anthracnose
Potato late blight = assay: microbe, parasite or virus in culture; assay type: cell-based; conditions: Phytophthora infestans, 96 h, read-out: Fungicidal activity (%) Potato late blight
Rice sheath blight = assay: In vitro fungicidal activity, PDA colony diameter; assay type: cell-based; conditions: 50 mg/kg, inhibition of colony diameter; read-out: Fungicidal activity (%) Rice sheath blight
Armyworms = assay: Test of insecticidal activity against armyworms (leaf immersion); conditions: 3-4 days
Maize borers = assay: Test of insecticidal activity against maize borers (leaf immersion); conditions: read-out: Mortalities (%) Maize borers
[4] = system: mosquito larvae (Culer pipiens pallens); assay: Test of insecticidal activity against mosquito larvae (checked after 24 h)
[5] = system: bean aphides (Aphis laburni Kaltenbach); assay: Test of insecticidal activity against aphides (leaf immersion, checked after 96 h); conditions: for mortality at 10 mg/kg / mortality at 100 mg/kg / mortality at 600 mg/kg / mortality at 5 mg/kg: Aphis, 96 h, read-out: Mortalities (%) against aphides; for insecticidal activity against aphides compared with pymetrozine: 5 mg/kg
Description: The insecticidal activity against aphides is tested through the following steps: the tested aphides are bean aphides (Aphis laburni Kaltenbach), a normal colony fed with broad bean leaves in a laboratory. The pesticide is weighed, 1 mL DMF is added to dissolve the pesticide, then two drops of emulsifier, Tween-20 are added, and distilled water is added in an appropriate amount; the mixture is stirred to a homogeneous state to prepare pesticide solution at required concentration (see the following table for the specific concentration). […] In a control group, only emulsifier and solvent are added into distilled water, and the mixture is stirred to a homogeneous state.

Cotton bollworms = assay: Test of insecticidal activity against cotton bollworms (pesticide mixed into feedstuff); conditions: read-out: Mortalities (%) Cotton bollworms
Description: Method of testing against cotton bollworms: the pesticide is mixed into the feedstuff, i.e., 3 mL prepared solution is added into about 27 g freshly prepared feedstuff; thus, required concentration is obtained by diluting by 10 times.

[6] = 50 mg/kg, inhibition of colony diameter
[7] = 24 h, read-out: Mortalities (%) against mosquito larvae

SMILES	inhibition of growth at 50 mg/kg (Cucumber fusarium wilt) [%]	inhibition of growth at 50 mg/kg [1] [%]	inhibition at 50 mg/kg (Tomato early blight) [%]	inhibition at 50 mg/kg (Wheat head blight) [%]	inhibition at 50 mg/kg (Rice bakanae disease; [6]) [%]	inhibition of growth at 50 mg/kg (Sclerotinia rot of colza) [%]	inhibition at 50 mg/kg (Apple ring rot) [%]	inhibition of growth at 50 mg/kg [2] [%]	inhibition at 50 mg/kg (Wheat sheath blight) [%]	inhibition at 50 mg/kg [3] [%]	inhibition at 50 mg/kg (Watermelon anthracnose) [%]	inhibition of growth at 50 mg/kg (Potato late blight) [%]	inhibition at 50 mg/kg (Rice sheath blight) [%]	Mortalities (%) Armyworms (Armyworms; 600 mg/kg) [%]	mortality at 600 mg/kg (Maize borers) [%]	mortality at 10 mg/kg [4, 7] [%]	mortality at 10 mg/kg [5] [%]	mortality at 100 mg/kg [5] [%]	mortality at 600 mg/kg [5] [%]	mortality at 600 mg/kg (Cotton bollworms) [%]	other results
CC1=NNC(=O)N(NS(=O)(=O)c2ccsc2)C1 [Ia-29, N-(6-methyl-3-oxo-2,3-dihydro-1,2,4-triazin-4(5H)-yl)-thienyl-3-sulfonamide]	12.8	19.2	25	21.2	3.7	12.5	52.4	23.1	20.8	13.9	18.8	23.8	35.7	10	15	35	30	85	95	20	–
CC1=NNC(=O)N(NS(=O)(=O)c2ccc(Br)cc2)C1 [Ia-22, 4-bromo-N-(6-methyl-3-oxo-2,3-dihydro-1,2,4-triazin-4(5H)-yl)-benzenesulfonamide]	14.7	16	6	16.2	17.2	21	37.8	27.8	8.7	3.1	56.3	25	23.2	100	100	100	100	100	100	100	Mortalities (%) Armyworms (Armyworms; 200 mg/kg): 70%; mortality at 200 mg/kg (Maize borers): 65%; mortality at 0.5 mg/kg [4, 7]: 40%; mortality at 1 mg/kg [4, 7]: 100%; mortality at 2 mg/kg [4, 7]: 100%; mortality at 5 mg/kg [4, 7]: 100%; insecticidal activity against mosquito larvae ([4]; in vivo): relatively high insecticidal activity; insecticidal activity against aphides compared with pymetrozine [5]: equivalent to the insecticidal activity of pymetrozine; mortality at 5 mg/kg [5]: 40%; mortality at 200 mg/kg (Cotton bollworms): 80%
CC1=NNC(=O)N(NS(=O)(=O)c2ccc(F)c(F)c2F)C1 [Ia-20, 2,3,4-trifluoro-N-(6-methyl-3-oxo-2,3-dihydro-1,2,4-triazin-4(5H)-yl)-benzenesulfonamide]	0	12	16.4	5.4	10.3	15.8	4.1	0	17.4	3.1	13.1	18.7	9.3	65	50	100	70	100	100	20	mortality at 2 mg/kg [4, 7]: 20%; mortality at 5 mg/kg [4, 7]: 100%; mortality at 5 mg/kg [5]: 10%
CC(=O)Nc1ccc(S(=O)(=O)NN2CC(C)=NNC2=O)cc1 [Ia-24, N-(4-(N-(6-methyl-3-oxo-2,3-dihydro-1,2,4-triazin-4(5H)-yl)sulfamyl)phenyl)acetamide]	0	15.8	23.8	6.7	27.8	40	13.8	24.5	52.3	25	12.5	22.2	50.8	5	5	100	75	95	100	50	mortality at 5 mg/kg [4, 7]: 45%; mortality at 5 mg/kg [5]: 10%
CC1=NNC(=O)N(NS(=O)(=O)c2ccccc2)C1 [Ia-9, N-(6-methyl-3-oxo-2,3-dihydro-1,2,4-triazin-4(5H)-yl)-benzenesulfonamide]	0	15.8	9.5	0	–	40	24.1	26.5	40.9	12.5	12.5	22.2	50.8	35	25	100	100	100	100	30	inhibition at 50 mg/kg (Rice bakanae disease): 22.2%; mortality at 2 mg/kg [4, 7]: 10%; mortality at 5 mg/kg [4, 7]: 80%; insecticidal activity against aphides compared with pymetrozine [5]: equivalent to the insecticidal activity of pymetrozine; mortality at 5 mg/kg [5]: 30%
CC1=NNC(=O)N(NS(=O)(=O)c2ccc(OC(F)(F)F)cc2)C1 [Ia-27, N-(6-methyl-3-oxo-2,3-dihydro-1,2,4-triazin-4(5H)-yl)-4-(trifluoromethoxy)-benzenesulfonamide]	0	12	16.4	16.2	17.2	15.8	24.3	27.8	4.3	15.6	16.4	28.1	17.4	5	15	100	100	100	100	25	mortality at 2 mg/kg [4, 7]: 20%; mortality at 5 mg/kg [4, 7]: 90%; insecticidal activity against aphides compared with pymetrozine [5]: equivalent to the insecticidal activity of pymetrozine; mortality at 5 mg/kg [5]: 35%
CC1=NNC(=O)N(N(S(C)(=O)=O)S(C)(=O)=O)C1 [Ib-1, N-(6-methyl-3-oxo-2,3-dihydro-1,2,4-triazin-4(5H)-yl)-N-(methylsulfonyl)-methylsulfonylamide]	0	15.8	23.8	6.7	44.4	36.7	20.7	26.5	56.8	12.5	20.8	29.6	34.9	15	10	35	100	100	100	30	insecticidal activity against aphides compared with pymetrozine [5]: equivalent to the insecticidal activity of pymetrozine; mortality at 5 mg/kg [5]: 20%
